Test results published in patent US9616037B2, “Aryl-phenyl-sulfonamido-cycloalkyl compounds and their use” (PIMCO 2664 Limited, priority 2008, dated 2017).
Values after ≈ are worked out from the molar mass of the structure shown.

How the values were obtained:
J774 macrophages = test: Alamar Blue macrophage J774 viability assay; type: cell-based; settings: Mus musculus; J774 cells, 72 hours with compound, Alamar Blue readout; read-out: IC50
Procedure: (§1) Initial screening of candidate compounds was performed using in vitro assays to determine potency, metabolic stability and solubility in biologically relevant fluids. Potency was assessed using a viability assay based on the survival of the J774 macrophage cell line. Macrophages are closely related to osteoclasts and have been used previously as a model system for osteoclast survival (see, e.g., Luckman et al., 1998). Like osteoclasts, J774 macrophages are dependent on continued NFκB activation for survival, thereby providing a valuable screen for compounds with anti-inflammatory activity. Metabolic stability was measured by determining the rate of disappearance of compound in the presence of human liver microsomal preparations, as quantified by LC-MS/MS. Solubility was measured by equilibration of the compound in fasted state simulated intestinal fluid (FaSSIF) and quantified by HPLC.
In vitro potency as anti-inflammatory agents was determined for a number of APSAC compounds by incubation with J774 macrophages and subsequent determination of cell viability.
J774 cells were plated at 10^4 cells per well in 100 μL αMEM (α Modified Eagle Medium) in 96-well plates and grown overnight. The next day, test compounds were added to the cultures, and cultures were continued for another 72 hours. At the end of the culture period, cell survival was determined using an Alamar Blue assay as previously described (see, e.g., Nociari et al., 1998).
Alamar Blue is an oxidation-reduction sensitive indicator. The dye itself is in the oxidised state, which is blue and non-fluorescent. The dye can accept electrons from reducing species, such as NADPH and FADH, to form a reduced dye species, which is red and fluorescent. Thus the transformation from oxidised form to reduced form can be measured by fluorimetric or colourimetric means. For fluorescence measurements, 530-560 nm excitation and 590 nm emission wavelengths are typically used. For colourimetric measurements, absorbance at 570 nm (reduced form) and 600 nm (oxidised form) is typically measured. A simple calculation is performed to determine the relative quantities of the two species.
A high ratio of the reducing species, NADPH and FADH, to the corresponding oxidised species, NADP and FAD, is an indicator that cells are proliferating and viable. A low ratio indicates cells that are quiescent or non-viable.
Briefly, Alamar Blue (Biosource International) was added undiluted to the each well (1:10 v/v, 10 μL). The plate was incubated at 37° C. for 3-4 hours and the fluorescence was measured at 590 nm, with a 25 nm bandwidth. A high reading indicated cells with normal viability, and a low reading indicated cells that have been damaged and are no longer proliferating normally. The controls gave a high fluorescence reading, indicating a high number of live, healthy cells. A potent test compound gave a low fluorescence reading. The average results for each test compound (n=5) were expressed as a percent (%) of the average control value.
Addition of Compounds. All of the compounds studied were made up as 100 mM solutions in DMSO. These stock solutions were then diluted 1000-10000× in culture medium (αMEM). From these 100 μM or 10 μM solutions, convenient quantities (3-33 μL) were added directly to the wells so as to give the desired final compound concentration.

[1] = Thermodynamic aqueous solubility in fasted state simulated intestinal fluid (FaSSIF); type: physicochemical; settings: pH 6.5, thermodynamic from solid, equilibrated at 25° C. for 24 hours, HPLC
Procedure: as §1, with “Macrophages are closely related to osteoclasts and have been used previously as a model system for osteoclast survival (see, e.g., Luckman et al., 1998).” left out
Thermodynamic aqueous solubility was measured by equilibration of a number of APSAC compounds, in the solid state, with fasted state simulated intestinal fluid (FaSSIF) and quantified by HPLC. Measurement of solubility in FaSSIF provides a valuable model for the prediction of drug dissolution following oral administration.
The pH was adjusted to 6.5 using 1 M NaOH solution.
0.6 mL of a solution containing 100 mg/mL lecithin in methylene chloride was added. The methylene chloride was eliminated under vacuum at about 40° C. The vacuum was drawn for 15 minutes at 250 mbar, followed by 15 minutes at 100 mbar. […] After cooling to room temperature, the solution was then adjusted to 100 mL with blank FaSSIF.
The suspension was equilibrated at 25° C. for 24 hours, and then the pH was measured. The suspension was then filtered through a glass fibre C filter into a 96-well plate. The filtrate was then diluted by a factor of 100. Quantification was made by HPLC with reference to a standard solution of compound at approximately 0.1 mg/mL in DMSO. Different volumes of the standard, diluted and undiluted sample solutions were injected. […] Analysis was performed on an Agilent HP1100 series system equipped with a diode array detector and using ChemStation software vB.02.01-SR1.

[2] = Human liver microsomal stability assay; type: in vitro ADME; settings: pooled human liver microsomes 0.5 mg/mL, 3 μM compound, NADPH, 45 minute incubation; for half-life at 3 µM: both sexes, pH 7.4
Procedure: as §1, with “Macrophages are closely related to osteoclasts and have been used previously as a model system for osteoclast survival (see, e.g., Luckman et al., 1998).” left out
Metabolic stability of APSAC derivatives was measured by determination of the rate of compound disappearance when incubated in the presence of human liver microsomes. Liver microsomes are prepared from the endoplasmic reticulum of hepatocytes and are the primary source of the most important enzymes (cytochrome P450) involved in drug metabolism. Study of drug stability in the presence of liver microsomes is accepted as a valuable model permitting rapid prediction of in vivo drug stability.
Human liver microsomes were obtained from a commercial source. Test compounds (3 μM) were incubated with pooled liver microsomes (male and female). Samples were incubated for a 45 minute period and removed at 5 time points and test compounds were analysed by LC-MS/MS.
The final incubation volume was 25 μL. A control incubation was included for each compound tested, where 0.1 M phosphate buffer pH 7.4 was added instead of NADPH. The control compounds testosterone and 7-hydroxycoumarin were included in each experiment and all incubations were performed singularly for each compound.
Each compound was incubated for 0, 5, 15, 30, and 45 minutes. The control (minus NADPH) was incubated for 45 minutes only. […] The incubation plates were centrifuged at 2500 rpm for 20 minutes at 4° C. to precipitate the protein.
Following protein precipitation, the sample supernatants were combined in cassettes of up to 4 compounds and analysed using standard LC-MS/MS conditions.
From a plot of the natural logarithm of the peak area ratio (i.e., the ratio of compound peak area:internal standard peak area) against time, the gradient of the line was determined. Subsequently, half-life and intrinsic clearance were calculated using the equations below: Eliminated rate constant (k)=(−gradient). […] Pharmacokinetics Studies

caspase 3 = test: Caspase induction study (Nucview488 fluorogenic substrate) in the presence of TNFα; type: cell-based; settings: human monocytes, 10 μM test compound, 10 ng/mL TNFα, Nucview488 stain
Procedure: The ability to activate caspase 3 was studied using a fluorogenic enzyme substrate assay.
Briefly, human primary monocytes were isolated from whole blood using Ficoll gradients. The resulting cells were plated into microwell plates for 24 hours after which non-adherent cells were removed by washing. Cells were differentiated in the presence of 100 ng/mL MCSF. Cells were pre-treated with 10 μM test compound for 1 hour prior to stimulation with 10 ng/mL TNFα. Caspase 3 activation as an indicator of apoptosis was detected using the Nucview488 stain, which was added one hour prior to visualisation. The Nucview488 stain indicates the activation of caspase 3 (CPP32, apopain, YAMA), a cysteine peptidase which plays a key role in the induction of apoptosis in individual whole mammalian cells. Essentially, Nucview488 consists of a fluorogenic DNA dye and a DEVD substrate moiety specific for caspase 3. In itself, Nucview488 is nonfluorescent. However, upon entering the cell cytoplasm, Nucview488 is cleaved by caspase 3 to form a high-affinity DNA dye. The released DNA dye migrates to the cell nucleus to stain the nucleus bright green. This fluorescent staining produced in response to caspase 3 activity is monitored using fluorescent light microscopy.

In the case of `O=S(=O)(N[C@@H]1CCC[C@@H]1CO)c1ccc(-c2ccc(F)cc2F)cc1` (relative stereo) [ABD769, 2′,4′-Difluoro-N-(cis-2-(hydroxymethyl)cyclopentyl)biphenyl-4-sulfonamide], the IC50 (J774 macrophages) is reported as 4590 nM, the solubility at 24 h [1] is reported as 70 µg/mL (≈ 191 µM) and the half-life at 3 µM [2] is reported as 42 min.

`O=S(=O)(N[C@H]1CC[C@H](O)CC1)c1ccc(-c2ccc(F)cc2F)cc1` [ABD599, 2′,4′-Difluoro-N-(trans-4-hydroxycyclohexyl)biphenyl-4-sulfonamide] showed an IC50 (J774 macrophages) of 70 nM, a solubility at 24 h [1] of 30 µg/mL (≈ 81.7 µM) and a half-life at 3 µM [2] of 287 min. For the same compound, the “caspase 3 activation (fluorescence detected by light microscopy)” value (caspase 3) was “significant activation of caspase 3”.

For `O=S(=O)(N[C@H]1CC[C@H](O)CC1)c1ccc(-c2ccc(Cl)cc2F)cc1` [ABD655, 4′-Chloro,2′-fluoro-N-(trans-4-hydroxycyclohexyl)biphenyl-4-sulfonamide], the IC50 (J774 macrophages) was 180 nM, the solubility at 24 h [1] was 30 µg/mL (≈ 78.2 µM) and the half-life at 3 µM [2] was 228 min.

`O=S(=O)(NC1CCC(CO)CC1)c1ccc(-c2ccc(F)cc2F)cc1` (stereo not drawn) [ABD776, 2′,4′-Difluoro-N-(4-(trans-hydroxymethyl)cyclohexyl)biphenyl-4-sulfonamide] gave an IC50 (J774 macrophages) of 800 nM, a solubility at 24 h [1] of 82 µg/mL (≈ 215 µM) and a half-life at 3 µM [2] of 137 min.

`O=S(=O)(N[C@H]1CC[C@@H](O)CC1)c1ccc(-c2ccc(F)cc2F)cc1` [ABD777, 2′,4′-Difluoro-N-(cis-4-hydroxycyclohexyl)biphenyl-4-sulfonamide] showed an IC50 (J774 macrophages) of 1900 nM, a solubility at 24 h [1] of 60 µg/mL (≈ 163 µM) and a half-life at 3 µM [2] of 69 min.

Compound `O=C1CCC(NS(=O)(=O)c2ccc(-c3ccc(F)cc3F)cc2)CC1` [ABD786, 2′,4′-Difluoro-N-(4-oxocyclohexyl)biphenyl-4-sulfonamide] has an IC50 (J774 macrophages) of 280 nM, a solubility at 24 h [1] of 32 µg/mL (≈ 87.6 µM) and a half-life at 3 µM [2] of 12 min.

With `NC1CCC(NS(=O)(=O)c2ccc(-c3ccc(F)cc3F)cc2)CC1` (stereo not shown) [ABD787] the IC50 (J774 macrophages) was 3550 nM, the solubility at 24 h [1] was 140 µg/mL (≈ 382 µM) and the T1/2 [2] was “Stable”.

For `CC(C)(O)[C@H]1CC[C@H](NS(=O)(=O)c2ccc(-c3ccc(F)cc3F)cc2)CC1` [ABD794, 2′,4′-Difluoro-N-(trans-4-(2-hydroxypropan-2-yl)cyclohexyl)biphenyl-4-sulfonamide], the IC50 (J774 macrophages) was 2100 nM, the solubility at 24 h [1] was 12 µg/mL (≈ 29.3 µM) and the T1/2 [2] was “Stable”.

`CC(C)(O)[C@H]1CC[C@@H](NS(=O)(=O)c2ccc(-c3ccc(F)cc3F)cc2)CC1` [ABD795, 2′,4′-Difluoro-N-(cis-4-(2-hydroxypropan-2-yl)cyclohexyl)biphenyl-4-sulfonamide] gave an IC50 (J774 macrophages) of 2700 nM, a solubility at 24 h [1] of 50 µg/mL (≈ 122 µM) and a half-life at 3 µM [2] of 15 min.

With `CC(C)(O)[C@@H]1CC[C@H](NS(=O)(=O)c2ccc(-c3ccc(F)cc3F)cc2)C1` [ABD796, 2′,4′-Difluoro-N-((1S,3R)-3-(2-hydroxypropan-2-yl)cyclopentyl)biphenyl-4-sulfonamide] the IC50 (J774 macrophages) was under 300 nM, the solubility at 24 h [1] was 200 µg/mL (≈ 506 µM) and the half-life at 3 µM [2] was 54 min.

For `CN(C)[C@H]1CC[C@@H](NS(=O)(=O)c2ccc(-c3ccc(F)cc3F)cc2)CC1` [ABD798, N-(cis-4-(Dimethylamino)cyclohexyl)-2′,4′-difluorobiphenyl-4-sulfonamide], the IC50 (J774 macrophages) was 600 nM, the solubility at 24 h [1] was 4700 µg/mL (≈ 11900 µM) and the T1/2 [2] was “Stable”.

With `CN(C)[C@H]1CC[C@H](NS(=O)(=O)c2ccc(-c3ccc(F)cc3F)cc2)CC1` [ABD799, N-(trans-4-(Dimethylamino)cyclohexyl)-2′,4′-difluorobiphenyl-4-sulfonamide] the IC50 (J774 macrophages) was 400 nM, the solubility at 24 h [1] was 7200 µg/mL (≈ 18300 µM) and the T1/2 [2] was “Stable”.

With `N[C@H]1CC[C@@H](NS(=O)(=O)c2ccc(-c3ccc(F)cc3F)cc2)CC1` [ABD812, N-(cis-4-Aminocyclohexyl)-2′,4′-difluorobiphenyl-4-sulfonamide] the IC50 (J774 macrophages) was 7600 nM, the solubility at 24 h [1] was 980 µg/mL (≈ 2670 µM) and the half-life at 3 µM [2] was 585 min.

Work on `O=S(=O)(N[C@H]1CC[C@H](CO)C1)c1ccc(-c2ccc(F)cc2F)cc1` [ABD813, 2′,4′-Difluoro-N-((1S,3S)-3-(hydroxymethyl)cyclopentyl)biphenyl-4-sulfonamide] yielded an IC50 (J774 macrophages) of 570 nM, a solubility at 24 h [1] of 330 µg/mL (≈ 898 µM) and a half-life at 3 µM [2] of 45.4 min.

`CC(C)(O)[C@H]1CC[C@H](NS(=O)(=O)c2ccc(-c3ccc(F)cc3F)cc2)C1` [ABD815, 2′,4′-Difluoro-N-((1S,3S)-3-(2-hydroxypropan-2yl)cyclopentyl) biphenyl-4-sulfonamide] gave an IC50 (J774 macrophages) of under 300 nM, a solubility at 24 h [1] of 250 µg/mL (≈ 632 µM) and a half-life at 3 µM [2] of 13.2 min.
